Key:
carboxypeptidase A [1] = molecular target: T1, carboxypeptidase A (Bos taurus, UniProt P00730); test: X-ray crystal structure at […] Å; Ki from competitive inhibition assay with AAFP substrate; format: biochemical
T1 construct: gene CPA1
T1 sequence (P00730 111-419): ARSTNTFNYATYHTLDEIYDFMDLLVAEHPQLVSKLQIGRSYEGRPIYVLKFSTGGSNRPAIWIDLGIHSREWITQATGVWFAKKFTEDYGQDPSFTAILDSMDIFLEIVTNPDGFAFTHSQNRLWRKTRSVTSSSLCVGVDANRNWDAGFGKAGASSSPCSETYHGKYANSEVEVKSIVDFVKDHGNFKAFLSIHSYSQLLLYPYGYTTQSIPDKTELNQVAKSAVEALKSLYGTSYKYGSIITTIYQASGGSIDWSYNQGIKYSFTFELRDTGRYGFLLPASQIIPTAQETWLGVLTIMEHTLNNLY

carboxypeptidase A [2] = molecular target: T1, carboxypeptidase A; test: competitive enzyme inhibition assay with AAFP substrate, absorbance; Ki from IC50 by Cheng-Prusoff; format: biochemical

Compound: O=C(O)CC(O)(CC(=O)O)C(=O)O [citrate]
- Ki (carboxypeptidase A [1]): 5000 µM

Compound: O=C(O)C[C@@H](Cc1ccccc1)C(=O)O [BzlSA, benzylsuccinic acid]
- Ki (carboxypeptidase A [2]): 0.52 µM
